Results on nine molecules are retold here after ChEMBL document CHEMBL3351611, “Diversity-oriented synthesis-facilitated medicinal chemistry: toward the development of novel antimalarial agents” (J Med Chem, 2014).

One may read the GI50 as the concentration giving 50% growth inhibition. In general, solubility refers to the dissolved amount per volume that the medium holds. A lower solubility goes with little dissolved substance. In general, inhibition refers to the percentage by which the read-out fell short of the control. Broadly, the logD is the decadic logarithm of the distribution of all forms, ionised or not, between an organic phase and buffer at a given pH.

Data set [1] concerns Plasmodium falciparum. The data set is described as follows: Antimalarial activity against Plasmodium falciparum Dd2 assessed as inhibition of parasite proliferation. The format is functional.
The nature of data set [2]: Solubility in PBS buffet at pH 7.4 at 100 uM incubated for 18 hrs by UPLC-MS method. The format is physicochemical. To be noted: for solubility: buffer, pH 7.4, 18 h, 100 µM.
For data set [3], the target named is hERG (KCNH2) (Homo sapiens, UniProt Q12809). Put plainly: Displacement of [3H]astemizole from human ERG expressed in HEK293 cell membranes at 10 uM incubated for 75 mins by scintillation counting method. To be noted: HEK293 cell membranes that express hERG, probe [3H]astemizole. Background: Displacement assays read how much labelled ligand stays bound in the presence of the test substance.

Data set [4] is described as follows: Lipophilicity, log D of the compound by HPLC method. It is filed as physicochemical.
Data set [5] in a line: Stability in mouse microsomes assessed as compound remaining at 1 uM after 1 hr at 37 degC by UPLC-MS method. It is filed as ADME, Microsome. Conditions: read-out: Stability.
The test system of data set [6] is Plasmodium berghei. Put plainly: Antimalarial activity against Plasmodium berghei ANKA infected in CD1 Swiss albino mouse assessed as reduction in parasitemia level at 100 mg/kg, ip dosed seven times every 12 hrs over 3 days relative to control. It is filed as functional. To be noted: route intraperitoneal.
The nature of data set [7]: Plasma concentration in Plasmodium berghei ANKA infected CD1 Swiss albino mouse at 100 mg/kg, ip dosed seven times every 12 hrs over 3 days measured 30 mins after final dose on day 3. The format is ADME, organism-based. Also on record: dose 100 mg/kg, route intraperitoneal.
A short description of data set [8]: Plasma concentration CD1 mouse at 20 mg/kg, ip dosed through cassette administration measured after 2 hrs by LC-MS/MS method. The format is ADME, organism-based. Also on record: dose 20 mg/kg, route intraperitoneal.
Data set [9] concerns Plasmodium berghei. The data set is described as follows: Antimalarial activity against Plasmodium berghei ANKA infected in CD1 Swiss albino mouse assessed as reduction in parasitemia. It is filed as functional.

In brackets after ≈: the same amount, converted by molar mass.

Chain of hERG (KCNH2) (Q12809 whole entry): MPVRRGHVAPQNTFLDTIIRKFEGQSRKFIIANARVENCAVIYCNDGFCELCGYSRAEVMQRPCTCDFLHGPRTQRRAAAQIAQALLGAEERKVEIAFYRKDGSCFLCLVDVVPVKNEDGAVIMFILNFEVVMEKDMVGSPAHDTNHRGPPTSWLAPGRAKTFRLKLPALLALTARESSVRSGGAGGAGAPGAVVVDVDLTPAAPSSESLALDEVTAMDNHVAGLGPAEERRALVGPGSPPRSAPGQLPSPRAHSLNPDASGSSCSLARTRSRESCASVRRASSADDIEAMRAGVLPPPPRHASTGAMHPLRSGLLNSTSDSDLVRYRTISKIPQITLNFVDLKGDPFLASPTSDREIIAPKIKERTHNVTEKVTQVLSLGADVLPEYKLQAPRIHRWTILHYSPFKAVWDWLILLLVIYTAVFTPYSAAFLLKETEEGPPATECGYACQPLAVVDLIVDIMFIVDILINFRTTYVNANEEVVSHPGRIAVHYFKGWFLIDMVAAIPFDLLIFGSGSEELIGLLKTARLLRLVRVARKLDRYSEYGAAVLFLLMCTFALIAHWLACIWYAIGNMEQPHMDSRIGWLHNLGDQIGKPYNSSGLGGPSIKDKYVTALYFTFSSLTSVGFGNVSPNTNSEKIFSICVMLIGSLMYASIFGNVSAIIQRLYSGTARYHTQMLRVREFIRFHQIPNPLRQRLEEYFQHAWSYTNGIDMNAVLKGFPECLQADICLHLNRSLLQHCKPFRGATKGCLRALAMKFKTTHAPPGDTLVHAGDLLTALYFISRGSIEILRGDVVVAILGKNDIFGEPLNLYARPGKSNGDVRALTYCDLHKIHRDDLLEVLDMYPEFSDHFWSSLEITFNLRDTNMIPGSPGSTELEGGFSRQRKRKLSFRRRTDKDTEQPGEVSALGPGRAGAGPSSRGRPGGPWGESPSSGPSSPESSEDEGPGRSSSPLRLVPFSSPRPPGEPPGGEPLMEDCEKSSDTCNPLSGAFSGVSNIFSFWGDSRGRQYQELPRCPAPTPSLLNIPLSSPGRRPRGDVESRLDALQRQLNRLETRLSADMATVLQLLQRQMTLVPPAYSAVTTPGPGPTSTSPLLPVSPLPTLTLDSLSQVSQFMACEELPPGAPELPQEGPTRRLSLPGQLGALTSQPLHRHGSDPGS

Regarding `Cc1noc(C)c1NC(=O)Nc1ccc2c(c1)C(=O)N([C@@H](C)CN1CCOCC1)C[C@@H](C)[C@H](CN(C)S(=O)(=O)c1ccc(F)cc1)OCCCC[C@H](C)O2`, the 50% growth inhibitory concentration (GI50) in [1] is 0.105 µM. In data set [2], this molecule returned a solubility of 29 µM (≈ 22.4 µg/mL). In data set [3], this molecule displayed an inhibition at 1.25 h, 10 µM of 1%. The molecule further gave a logD in data set [4] of 3.5. For the same molecule, in data set [5], the remaining at 1 h, 1 µM is below 5%.

Turning to `Cc1noc(C)c1NC(=O)Nc1ccc2c(c1)C(=O)N([C@@H](C)CNCC(F)(F)F)C[C@@H](C)[C@H](CN(C)S(=O)(=O)c1ccc(F)cc1)OCCCC[C@H](C)O2`, in [1], the GI50 was 0.009 µM. This molecule also gave an inhibition at 1.25 h, 10 µM in data set [3] of 15%. For the same molecule, the logD in data set [4] was determined as 3.9. Further, the remaining at 1 h, 1 µM in data set [5] is below 5%.

Regarding `Cc1noc(C)c1NC(=O)Nc1ccc2c(c1)C(=O)N([C@@H](C)CN(C)C)C[C@@H](C)[C@H](CN(C)S(=O)(=O)c1ccc(F)cc1)OCCCC[C@H](C)O2`, the GI50 in [1] was determined as 0.0042 µM. The molecule further gave a solubility in data set [2] above 100 µM. Besides, in [3], the inhibition at 1.25 h, 10 µM is 13%. In addition, the log distribution coefficient (logD) in [4] worked out at 2.9. Moreover, the remaining at 1 h, 1 µM in [5] was 8%. The “fold change (FC)” value in [6] came out at 2. The same molecule registered a concentration at 0.5 h in data set [7] of 300 ng/mL. This molecule also yielded a concentration at 2 h in [8] of 768 ng/mL.

Take `C[C@@H]1CN([C@@H](C)CN(C)C)C(=O)c2cc(NC(=O)NC3COC3)ccc2O[C@@H](C)CCCCO[C@H]1CN(C)S(=O)(=O)c1ccc(F)cc1`: the concentration for 50% growth inhibition (GI50) in [1] worked out at 0.032 µM. In data set [2], this molecule registered a solubility above 100 µM. In data set [4], this molecule had a pH-dependent lipophilicity (logD) of 1.1. Also, in data set [5], the remaining at 1 h, 1 µM is 8%.

As for `Cc1noc(C)c1NC(=O)Nc1ccc2c(c1)C(=O)N(C(C)C)C[C@@H](C)[C@H](CN(C)S(=O)(=O)c1ccc(F)cc1)OCCCC[C@H](C)O2`, in data set [1], the GI50 was 0.022 µM. The solubility at 18 h, 100 µM in data set [2] (PBS buffer, pH 7.4) was below 5 µM. The same molecule registered an inhibition at 1.25 h, 10 µM in data set [3] of 0%. Also, the log distribution coefficient (logD) in data set [4] is 4. Also, the remaining at 1 h, 1 µM in [5] was below 5%.

Regarding `Cc1noc(C)c1NC(=O)Nc1ccc2c(c1)C(=O)N([C@@H](C)CO)C[C@@H](C)[C@H](CN(C)S(=O)(=O)c1ccc(F)cc1)OCCCC[C@H](C)O2`, the GI50 in data set [1] was determined as 0.24 µM. Besides, in [3], the inhibition at 1.25 h, 10 µM amounted to 11%. In data set [4], this molecule registered a logD of 2.9. The remaining at 1 h, 1 µM in data set [5] is below 5%.

As to `C[C@@H]1CN([C@@H](C)CN(C)C)C(=O)c2cc(NC(=O)Nc3ccccc3)ccc2O[C@@H](C)CCCCO[C@H]1CN(C)S(=O)(=O)c1ccc(F)cc1`, in data set [3], the inhibition at 1.25 h, 10 µM came out at 95%. In data set [4], this molecule registered a pH-dependent lipophilicity (logD) of 4.1.

Turning to `C[C@H]1[C@H](OC(=O)CCC(=O)O)O[C@@H]2O[C@@]3(C)CC[C@H]4[C@H](C)CC[C@@H]1[C@@]24OO3` [ARTESUNATE], the “inhibition (INH)” value in data set [9] turned out to be 97%.

For `Cc1noc(C)c1NC(=O)Nc1ccc2c(c1)C(=O)N([C@@H](C)CNCC(C)(C)C)C[C@@H](C)[C@H](CN(C)S(=O)(=O)c1ccc(F)cc1)OCCCC[C@H](C)O2`, the GI50 in [1] was found to be 0.014 µM. The molecule also returned a solubility in [2] of 7 µM (≈ 5.41 µg/mL). The same molecule gave a log distribution coefficient (logD) in data set [4] of 3.8. In addition, in data set [5], the remaining at 1 h, 1 µM was 5%.
